Reference: PubChem BioAssay (NCI)
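Following 48 hours of exposure in 96-well plates, responses at five concentrations were used to interpolate endpoints linearly. TGI: total growth inhibition.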 Where a SMILES comes first, the peptide text is derived from it. The star is where a group is joined. Boc = CC(C)(C)OC(=O)*; Bn = c1ccc(C*)cc1

Legend:
Test in all cases: NCI-60 cell line screen, 48 h
786-0 renal = tested on: 786-0 renal
A498 renal = tested on: A498 renal
A549 NSCLC = tested on: A549 NSCLC
ACHN renal = tested on: ACHN renal
CAKI-1 renal = tested on: CAKI-1 renal
CCRF-CEM leukemia = tested on: CCRF-CEM leukemia
COLO 205 colon = tested on: COLO 205 colon
DU-145 prostate = tested on: DU-145 prostate
EKVX NSCLC = tested on: EKVX NSCLC
HCC-2998 colon = tested on: HCC-2998 colon
HCT-116 colon = tested on: HCT-116 colon
HCT-15 colon = tested on: HCT-15 colon
HL-60(TB) leukemia = tested on: HL-60(TB) leukemia
HOP-62 NSCLC = tested on: HOP-62 NSCLC
HOP-92 NSCLC = tested on: HOP-92 NSCLC
HS 578T breast = tested on: HS 578T breast
HT29 colon = tested on: HT29 colon
IGROV1 ovarian = tested on: IGROV1 ovarian
K-562 leukemia = tested on: K-562 leukemia
KM12 colon = tested on: KM12 colon
LOX IMVI melanoma = tested on: LOX IMVI melanoma
M14 melanoma = tested on: M14 melanoma
MALME-3M melanoma = tested on: MALME-3M melanoma
MCF7 breast = tested on: MCF7 breast
MDA-MB-231 breast = tested on: MDA-MB-231 breast
MDA-MB-435 = tested on: MDA-MB-435
MDA-N = tested on: MDA-N
MOLT-4 leukemia = tested on: MOLT-4 leukemia
NCI-H226 lung = tested on: NCI-H226 lung
NCI-H23 lung = tested on: NCI-H23 lung
NCI-H460 lung = tested on: NCI-H460 lung
NCI-H522 lung = tested on: NCI-H522 lung
NCI/ADR-RES ovarian = tested on: NCI/ADR-RES ovarian
OVCAR-3 ovarian = tested on: OVCAR-3 ovarian
OVCAR-4 ovarian = tested on: OVCAR-4 ovarian
OVCAR-5 ovarian = tested on: OVCAR-5 ovarian
OVCAR-8 ovarian = tested on: OVCAR-8 ovarian
PC-3 prostate = tested on: PC-3 prostate
RPMI-8226 leukemia = tested on: RPMI-8226 leukemia
RXF 393 renal = tested on: RXF 393 renal
SF-268 CNS = tested on: SF-268 CNS
SF-295 CNS = tested on: SF-295 CNS
SF-539 CNS = tested on: SF-539 CNS
SK-MEL-2 melanoma = tested on: SK-MEL-2 melanoma
SK-MEL-28 melanoma = tested on: SK-MEL-28 melanoma
SK-MEL-5 melanoma = tested on: SK-MEL-5 melanoma
SK-OV-3 ovarian = tested on: SK-OV-3 ovarian
SN12C renal = tested on: SN12C renal
SNB-19 CNS = tested on: SNB-19 CNS
SNB-75 CNS = tested on: SNB-75 CNS
SR leukemia = tested on: SR leukemia
T-47D breast = tested on: T-47D breast
TK-10 renal = tested on: TK-10 renal
U251 CNS = tested on: U251 CNS
UACC-257 melanoma = tested on: UACC-257 melanoma
UACC-62 melanoma = tested on: UACC-62 melanoma
UO-31 renal = tested on: UO-31 renal
BT-549 breast = tested on: BT-549 breast
SW-620 colon = tested on: SW-620 colon

Measured: TGI

O=[N+]([O-])c1ccc2[nH]c(=S)[nH]c(=S)c2c1
> 100 µM: 786-0 renal | A498 renal | A549 NSCLC | ACHN renal | CAKI-1 renal | CCRF-CEM leukemia | COLO 205 colon | DU-145 prostate | EKVX NSCLC | HCC-2998 colon | HCT-116 colon | HCT-15 colon | HL-60(TB) leukemia | HOP-62 NSCLC | HOP-92 NSCLC | HS 578T breast | HT29 colon | IGROV1 ovarian | K-562 leukemia | KM12 colon | LOX IMVI melanoma | M14 melanoma | MALME-3M melanoma | MCF7 breast | MDA-MB-231 breast | MDA-MB-435 | MDA-N | MOLT-4 leukemia | NCI-H226 lung | NCI-H23 lung | NCI-H460 lung | NCI-H522 lung | NCI/ADR-RES ovarian | OVCAR-3 ovarian | OVCAR-4 ovarian | OVCAR-5 ovarian | OVCAR-8 ovarian | PC-3 prostate | RPMI-8226 leukemia | RXF 393 renal | SF-268 CNS | SF-295 CNS | SF-539 CNS | SK-MEL-2 melanoma | SK-MEL-28 melanoma | SK-MEL-5 melanoma | SK-OV-3 ovarian | SN12C renal | SNB-19 CNS | SNB-75 CNS | SR leukemia | T-47D breast | TK-10 renal | U251 CNS | UACC-257 melanoma | UACC-62 melanoma | UO-31 renal

COC(=O)C(CC(C)C)NC(=O)C(C)NC(=O)C(Cc1ccc(OCc2ccccc2)cc1)NC(=O)C(COCc1ccccc1)NC(=O)OC(C)(C)C (centres undefined) (Boc-S(Bn)Y(Bn)AL-OMe; configuration not given here)
> 100 µM: 786-0 renal | A549 NSCLC | ACHN renal | BT-549 breast | CAKI-1 renal | COLO 205 colon | DU-145 prostate | EKVX NSCLC | HCT-116 colon | HL-60(TB) leukemia | HOP-62 NSCLC | HOP-92 NSCLC | HS 578T breast | HT29 colon | IGROV1 ovarian | K-562 leukemia | KM12 colon | LOX IMVI melanoma | M14 melanoma | MALME-3M melanoma | MCF7 breast | MDA-MB-435 | MDA-N | MOLT-4 leukemia | NCI-H226 lung | NCI-H23 lung | NCI-H460 lung | NCI-H522 lung | NCI/ADR-RES ovarian | OVCAR-3 ovarian | OVCAR-4 ovarian | OVCAR-5 ovarian | OVCAR-8 ovarian | PC-3 prostate | RPMI-8226 leukemia | RXF 393 renal | SF-268 CNS | SF-295 CNS | SF-539 CNS | SK-MEL-28 melanoma | SK-MEL-5 melanoma | SK-OV-3 ovarian | SN12C renal | SNB-19 CNS | SNB-75 CNS | SR leukemia | SW-620 colon | T-47D breast | TK-10 renal | U251 CNS | UACC-62 melanoma | UO-31 renal
